# Measurements as given in patent US8101389B2, “Bacterial glutamine synthetases and methods of use” (Athenix Corp, priority 2006, dated 2012).
# Entries after “also recorded” stand apart in the source; their conditions may differ.
# Columns and labels:
# [1] = test system: E. coli cells with AGS1 variant AGS1m7 (pAX3431), G168C, V214M, K395R, SEQ ID NO:14; experiment: growth of E. coli on glufosinate plates, ags1m7; assay type: cell-based; conditions: 2, 10, 20, 50, and 100 mM; DH5a; Clone 10
# Experimental: (§1) Mutants of the bacterial glutamine synthetase gene ags1 (SEQ ID NO:1) were created by error-prone mutagenesis using the GENEMORPH® Random Mutagenesis kit, and also using oligo-directed mutagenesis as known in the art. However, many methods are available for creating libraries of mutants. The resulting mutants were cloned into a pUC19 vector, electroporated into either XL-1 or DH5 alpha E. coli cells, and selected for growth on M63+ agar media containing antibiotic and 2, 10, or 20 mM glufosinate. Twenty-two clones were identified as growing on 20 mM glufosinate, and picked for further analysis.
# [2] = test system: E. coli cells with AGS1 variant AGS1m16 (pAX3439), F81S, P185S, H212N, G218S, I303N, SEQ ID NO:32; experiment: growth of E. coli on glufosinate plates, ags1m16; assay type: cell-based
# Experimental: (§2) ags1m2 was mutagenized by error-prone mutagenesis using GENEMORPH® II Random Mutagenesis kit (Stratagene) according to manufacturer's instructions. Mutagenized PCR product was digested with Sac I and Hind III, and ligated into a pUC vector, similarly digested with Sac I and Hind III. Ligations were transformed into E. coli cells, and plated onto M63+ plates containing antibiotic, and 125 mM glufosinate. Clones growing on 125 mM glufosinate plates were retested on 200 mM glufosinate plates, and compared to similar platings of ags1m1 and ags1m2. […] The DNA sequence of the ags open reading frame in pAX3439 was sequenced, and the gene designated as ags1m16. The DNA sequence of ags1m16 is represented herein as SEQ ID NO:31, and the amino acid sequence is represented herein as SEQ ID NO:32. AGS1m16 differs from AGS1m2 at a single amino acid at position H212 of the protein, which is modified from Histidine (‘H’) to Asparagine (‘N’), and contains a total of five amino acid changes relative to the wild-type AGS1 (see FIG. 1 and Table 3).
# Clones expressing AGS1m17, AGS1m18, AGS1m19, or AGS1m20 were all found to be able to grow on plates containing 375 mM glufosinate, whereas no growth of clones expressing AGS1m16 was observed on plates containing 375 mM glufosinate.
# [3] = test system: E. coli DH5α cells with TKH3; experiment: growth of DH5α with TKH3 on M63 minimal plates with glufosinate; assay type: cell-based; conditions: 20 mM glufosinate
# Experimental: To obtain the gene(s) responsible for the strain's resistance to glufosinate, a small insert plasmid genomic library was prepared from strain ATX 20345. Genomic DNA was extracted from a fresh, overnight LB culture using SDS, proteinase K cell lysis followed by CTAB/NaCl, phenol-chloroform extractions. Partial digests were performed on the genomic DNA using 0.1 units Sau3A I at 37° C. for 30 minutes followed by the addition of EDTA and incubation at 65° C. for 20 minutes to halt the reaction. Resultant DNA was approximately 4-12 kb in size. The DNA was gel purified, treated with T4 polynucletide kinase, then ligated into BamH I digested pUC18 vector. Ligations were transformed into DH5a and plated directly on M63 minimal media plates containing 20 mM glufosinate, 100 μg/ml carbenicillin, and 0.1 mM IPTG. After several days, 4 colonies had appeared, tentatively named TKH1-4. They were grown up and plasmid DNA was isolated and analyzed by digestion with EcoR I+ Hind III, and Pst I/Sac Ito compare inserts. Though all four clones contained inserts, TKH2 and TKH3 were identical by restriction digest analysis, and both contained inserts of approximately 4.9 kb.
# To reconfirm that TKH2 and TKH3 confer resistance to 20 mM glufosinate, the purified plasmids were retransformed into DH5α cells. pUC18 was retransformed as a negative control. […]
# ATX 20345 = experiment: Growth of strain ATX 20345 in minimal medium with glufosinate; assay type: cell-based, Serratia marcescens; conditions: no other nitrogen source, 21° C.
# Experimental: A glufosinate resistant bacterial strain (ATX 20345) was isolated from a soil sample via a soil suspension by placing approximately 0.01 grams soil in 500 μl sterile water. The soil suspension was vortexed, and 20 μl was used to inoculate a 2.5 ml minimal medium culture supplemented with 5 mM glufosinate (Riedel-de Habël, available through Sigma-Aldrich, St. Louis, Mo.). The minimal medium contains the following ingredients (per 1 liter): 10 grams sucrose, 1 ml 0.8M MgSO4, 1 ml 0.1M CaCl2, 1 ml trace elements, 2.38 grams KH2PO4, 5.64 grams K2HPO4. The pH is adjusted to 7.0, and the solution is sterilized with a 0.2 μm filter. Trace elements consist of (per 100 ml) 0.1 g FeSO4.7H2O, 0.5 mg CuSO4.5H2O, 1.0 mg H3BO3, 1.0 mg MnSO4.5H2O, 7.0 mg ZnSO4.7H2O, 1.0 mg MoO3, 4.0 g KCl. No additional nitrogen source was provided in the medium. Cultures were grown at 21° C. on a rotary shaker for 3 days then transferred to fresh minimal medium containing 5 mM glufosinate and incubated at 21° C. After 2 days, the cultures were used to inoculate fresh minimal medium with 5 mM glufosinate. After 2 days, the cultures were plated onto Luria Bertani (LB) agar and then restruck for isolation. […] Colonies on LB agar are pinkish-red, raised, circular, and 1-2 mm in diameter. ATX20345 was typed by fatty acid analysis (as known in the art), and determined to be a strain of Serratia marcescens. […]
# [4] = test system: E. coli cells with AGS1 variant AGS1m1 (pAX3421), V39I, V214M, SEQ ID NO:4; experiment: growth of E. coli on glufosinate plates, ags1m1; assay type: cell-based
# Experimental: as §1
# as §2, with “AGS1m16 differs from AGS1m2 at a single amino acid at position H212 of the protein, which is modified from Histidine (‘H’) to Asparagine (‘N’), and contains a total of five amino acid changes relative to the wild-type AGS1 (see FIG. 1 and Table 3).” left out
smiles,measurement,setting,value
CP(=O)(O)CCC(N)C(=O)O (centres unmarked) [glufosinate],growth on glufosinate minimal M63+ agar media,[1],shown to grow
same,growth on 200 mM glufosinate plates,[2]; 200 mM glufosinate,ability to grow
same,growth on plates containing 375 mM glufosinate,[2]; 375 mM glufosinate,no growth
same,glufosinate concentrations up to which cells are able to grow,[2]; cells containing AGS1m16,200 mM
same,growth in the presence of glufosinate,[3],grew in the presence of glufosinate
same,growth of ATX 20345 in the presence of glufosinate,ATX 20345,ability to grow in the presence of 5 mM glufosinate; also recorded: grows well through 50 mM
same,growth on 200 mM glufosinate plates,[4]; 200 mM glufosinate,did not grow
same,growth on glufosinate minimal M63+ agar media,"[4]; 2, 10, 20, 50, and 100 mM, DH5a, Clone 2",shown to grow
